Assay results as given in patent publication US4281136A, “2-Alkyl-3-haloisothiazolium salts and their derivatives” (Givaudan Corporation, priority 1978, dated 1981).
Values after ≈ are worked out from the molar mass of the structure shown. Where two headings read alike, the source gives them in different places.

Experiments:
Ps. aeruginosa = assay: preservative for cutting oil emulsions; assay type: cell-based; conditions: for MIC: Pseudomonas aeruginosa; for Minimum Inhibitory Concentration: listed as CH3, Cl, Cl
Experimental: Various aliquots of a 6% solution of the chemical in ethanol were added to cutting oil emulsions prepared by diluting Kutwell 30 cutting oil concentrate 1 to 30 with water. These samples were inoculated with a culture of Ps. aeruginosa and incubated at 28° on a rotary shaker. At weekly intervals the samples were examined for microorganisms and then reinoculated and incubated.

P. piscarium = assay: slimicide for pulp and paper mill water systems, P. piscarium; assay type: cell-based
Experimental: (§1) Various quantities of a 6% solution of this compound in dimethylformamide were incorporated into 24 ml of a test substrate composed as follows:
(§2) 8.4 g Whatman No. 2 cellulose
(§3) 1.0 g Nutrient Broth, Difco
(§4) 10.0 ml Mersize Rm 70R (Monsanto)
(§5) The samples were inoculated with four different organisms and incubated at 28° C. At weekly intervals the samples were examined for the presence of microbial growth and reinoculated during a total incubation period of four weeks.
(§6) The test of Example V was used to determine the effectiveness of 4,5-dichloro-3-dicyanomethylene-2-methyl-4-isothiazoline as a slimicide.

P. aeruginosa = assay: slimicide for pulp and paper mill water systems, P. aeruginosa; assay type: cell-based; conditions: for MIC: Pseudomonas aeruginosa, read-out: Minimum inhibitory concentration
Experimental: as §1, §2, §3, §4, §5, §6

A. niger = assay: slimicide for pulp and paper mill water systems, A. niger; assay type: cell-based; conditions: for MIC: Aspergillus niger, read-out: Minimum inhibitory concentration
Experimental: as §1, §2, §3, §4, §5, §6

E. aerogenes = assay: slimicide for pulp and paper mill water systems, E. aerogenes; assay type: cell-based; conditions: for MIC: Klebsiella aerogenes
Experimental: as §1, §2, §3, §4, §5, §6

Aureobasidium pullulans = assay: preservative for latex paints; assay type: cell-based; conditions: for Surface (growth on the surface of painted square) / Zone (zone of inhibition): three weeks, 27°-28°; for Surface (growth on the surface of painted square): none, medium or heavy; for Zone (zone of inhibition): listed as CH3, Cl, Cl
Experimental: Various quantities of the chemical were incorporated into a white exterior vinyl acetate paint. Whatman #30 filter paper was painted with one coat of paint on each side. One inch squares were cut and placed in Petri dishes on a malt agar.
The surface of both the agar and the painted squares were inoculated with a spore suspension of Aureobasidium pullulans. The plates were examined for zones of inhibition and surface growth after three weeks incubation in a humidity chamber at 27°-28°.
Various quantities of 4,5-dichloro-2-methyl-4-isothiazolin-3-thione were incorporated into a white exterior vinyl acetate paint and tested as described in Example IV.

four different organisms = assay: slimicide for pulp and paper mill water systems, overall; assay type: cell-based, P. aeruginosa, E. aerogenes, A. niger, P. Piscarium; conditions: four weeks, 28° C.
Experimental: as §1, §2, §3, §4, §5

[1] = read-out: Minimum inhibitory concentration, P. Piscarium, week 1, 28° C.
[2] = read-out: Minimum inhibitory concentration, P. Piscarium, week 2, 28° C.
[3] = read-out: Minimum inhibitory concentration, P. Piscarium, week 3, 28° C.
[4] = read-out: Minimum inhibitory concentration, P. Piscarium, week 4, 28° C.
[5] = Conc. 0.25% in vinyl acetate paint
[6] = Conc. 0.5% in vinyl acetate paint
[7] = read-out: Minimum inhibitory concentration, E. aerogenes, week 1, 28° C.
[8] = read-out: Minimum inhibitory concentration, E. aerogenes, week 2, 28° C.
[9] = read-out: Minimum inhibitory concentration, E. aerogenes, week 3, 28° C.
[10] = read-out: Minimum inhibitory concentration, E. aerogenes, week 4, 28° C.

In the case of `CN1SC(Cl)=C(Cl)C1=C(C#N)C#N` [drawing 12 CH3, Cl, Cl, 4,5-dichloro-3-dicyanomethylene-2-methyl-4-isothiazoline], the MIC (Ps. aeruginosa; 168 h, cutting oil emulsion, incubation 1 week, 28°, read-out: Minimum Inhibitory Concentration) is reported as 125 µg/mL (≈ 539 µM), the MIC (Ps. aeruginosa; 336 h, cutting oil emulsion, incubation 2 weeks, 28°, read-out: Minimum Inhibitory Concentration) is reported as 125 µg/mL (≈ 539 µM) and the MIC (Ps. aeruginosa; 504 h, cutting oil emulsion, incubation 3 weeks, 28°, read-out: Minimum Inhibitory Concentration) is reported as 250 µg/mL (≈ 1080 µM). It also gave an MIC (Ps. aeruginosa; 672 h, cutting oil emulsion, incubation 4 weeks, 28°, read-out: Minimum Inhibitory Concentration) of 250 µg/mL (≈ 1080 µM), an MIC (P. piscarium; P. Piscarium, week 1, 28° C., read-out: Minimum inhibitory concentration) of 250 µg/mL (≈ 1080 µM) and an MIC (P. piscarium; P. Piscarium, week 2, 28° C., read-out: Minimum inhibitory concentration) of 250 µg/mL (≈ 1080 µM). For the same compound, the MIC (P. piscarium; P. Piscarium, week 3, 28° C., read-out: Minimum inhibitory concentration) was 250 µg/mL (≈ 1080 µM), the MIC (P. piscarium; P. Piscarium, week 4, 28° C., read-out: Minimum inhibitory concentration) was 500 µg/mL (≈ 2150 µM) and the Minimum Inhibitory Concentration (P. aeruginosa; P. aeruginosa, week 2, 28° C.) was 250 µg/mL. For the same compound, the Minimum Inhibitory Concentration (P. aeruginosa; P. aeruginosa, week 3, 28° C.) was 250 µg/mL, the Minimum Inhibitory Concentration (P. aeruginosa; P. aeruginosa, week 4, 28° C.) was 250 µg/mL and the MIC (P. aeruginosa; P. aeruginosa, week 1, 28° C.) was 250 µg/mL (≈ 1080 µM). The MIC (A. niger; A. niger, week 1, 28° C.) was 250 µg/mL (≈ 1080 µM), the MIC (A. niger; A. niger, week 2, 28° C.) was 500 µg/mL (≈ 2150 µM) and the MIC (A. niger; A. niger, week 3, 28° C.) was 500 µg/mL (≈ 2150 µM). It also gave an MIC (A. niger; A. niger, week 4, 28° C.) of 500 µg/mL (≈ 2150 µM), a Minimum Inhibitory Concentration (E. aerogenes; E. aerogenes, week 2, 28° C.) of 250 µg/mL and a Minimum Inhibitory Concentration (E. aerogenes; E. aerogenes, week 3, 28° C.) of 250 µg/mL. The Minimum Inhibitory Concentration (E. aerogenes; E. aerogenes, week 4, 28° C.) was 250 µg/mL and the MIC (E. aerogenes; E. aerogenes, week 1, 28° C., read-out: Minimum inhibitory concentration) was 250 µg/mL (≈ 1080 µM).

For `Cn1sc(Cl)c(Cl)c1=S` [No. 1 (Table VIII), 4,5-Dichloro-2-methyl-4-isothiazolin-3-thione], the MIC (Ps. aeruginosa; 168 h, read-out: Minimum Inhibitory Concentration, cutting oil emulsion, incubation 1 week, 28°) was under 16 µg/mL, the MIC (Ps. aeruginosa; 336 h, read-out: Minimum Inhibitory Concentration, cutting oil emulsion, incubation 2 weeks, 28°) was 62 µg/mL (≈ 310 µM) and the MIC (Ps. aeruginosa; 504 h, read-out: Minimum Inhibitory Concentration, cutting oil emulsion, incubation 3 weeks, 28°) was 62 µg/mL (≈ 310 µM). For the same compound, the MIC (Ps. aeruginosa; 672 h, read-out: Minimum Inhibitory Concentration, cutting oil emulsion, incubation 4 weeks, 28°) was 62 µg/mL (≈ 310 µM), the MIC (P. piscarium; [1]) was under 8 µg/mL and the MIC (P. piscarium; [2]) was under 8 µg/mL. For the same compound, the MIC (P. piscarium; [3]) was under 8 µg/mL, the MIC (P. piscarium; [4]) was 16 µg/mL (≈ 80 µM) and the Minimum Inhibitory Concentration (P. aeruginosa; P. aeruginosa, week 2, 28° C.) was 16 µg/mL. It also gave a Minimum Inhibitory Concentration (P. aeruginosa; P. aeruginosa, week 3, 28° C.) of 16 µg/mL, a Minimum Inhibitory Concentration (P. aeruginosa; P. aeruginosa, week 4, 28° C.) of 16 µg/mL and an MIC (P. aeruginosa) of 16 µg/mL (≈ 80 µM). The zone of inhibition at 0.25 % (Aureobasidium pullulans; Aureobasidium pullulans, 504 h, read-out: Zone (zone of inhibition), Conc. 0.25% in vinyl acetate paint, three weeks, 27°-28°) was 20 mm, the zone of inhibition at 0.5 % (Aureobasidium pullulans; Aureobasidium pullulans, 504 h, read-out: Zone (zone of inhibition), Conc. 0.5% in vinyl acetate paint, three weeks, 27°-28°) was 20 mm and the “Surface (growth on the surface of painted square)” value (from here on “Surface”) (Aureobasidium pullulans; [5]) was “no growth”. The “Surface” value (Aureobasidium pullulans; [6]) was “no growth”, the Minimum Inhibitory Concentration (A. niger; A. niger, week 2, 28° C.) was under 8 µg/mL and the Minimum Inhibitory Concentration (A. niger; A. niger, week 3, 28° C.) was under 8 µg/mL. The Minimum Inhibitory Concentration (A. niger; A. niger, week 4, 28° C.) was under 8 µg/mL, the MIC (A. niger) was under 8 µg/mL and the MIC (E. aerogenes; [7]) was under 8 µg/mL. The MIC (E. aerogenes; [8]) was under 8 µg/mL, the MIC (E. aerogenes; [9]) was 16 µg/mL (≈ 80 µM) and the MIC (E. aerogenes; [10]) was 16 µg/mL (≈ 80 µM).

In the case of `C[n+]1sc(Cl)c(Cl)c1Cl` [No. 2 (Table I), 2-Methyl-3,4,5-trichloroisothiazolium methylsulfate], the “Minimum Inhibitory Concentration” value (Ps. aeruginosa; cutting oil emulsion, incubation 1 week, 28°, O3SOMe) is reported as under 2 µg/mL, the “Minimum Inhibitory Concentration” value (Ps. aeruginosa; cutting oil emulsion, incubation 2 weeks, 28°, O3SOMe) is reported as under 2 µg/mL and the “Minimum Inhibitory Concentration” value (Ps. aeruginosa; cutting oil emulsion, incubation 3 weeks, 28°, O3SOMe) is reported as under 16 µg/mL. The “Minimum Inhibitory Concentration” value (Ps. aeruginosa; cutting oil emulsion, incubation 4 weeks, 28°, O3SOMe) was under 16 µg/mL, the MIC (P. piscarium; [1]) was 3.9 µg/mL and the MIC (P. piscarium; [2]) was 3.9 µg/mL. It also gave an MIC (P. piscarium; [3]) of 3.9 µg/mL, an MIC (P. piscarium; [4]) of 3.9 µg/mL and a Minimum Inhibitory Concentration (P. aeruginosa; P. aeruginosa, week 2, 28° C.) of 7.8 µg/mL. It also gave a Minimum Inhibitory Concentration (P. aeruginosa; P. aeruginosa, week 3, 28° C.) of 7.8 µg/mL, a Minimum Inhibitory Concentration (P. aeruginosa; P. aeruginosa, week 4, 28° C.) of 7.8 µg/mL and an MIC (P. aeruginosa) of 7.8 µg/mL. The “Zone (zone of inhibition)” value (Aureobasidium pullulans; Conc. 0.25% in vinyl acetate paint, O3SOMe) was 0 mm, the “Surface” value (Aureobasidium pullulans; [5]) was “None” and the “Zone (zone of inhibition)” value (Aureobasidium pullulans; Conc. 0.5% in vinyl acetate paint, O3SOMe) was over 20 mm. The “Surface” value (Aureobasidium pullulans; [6]) was “None”, the Minimum Inhibitory Concentration (A. niger; A. niger, week 2, 28° C.) was 3.9 µg/mL and the Minimum Inhibitory Concentration (A. niger; A. niger, week 3, 28° C.) was 3.9 µg/mL. The Minimum Inhibitory Concentration (A. niger; A. niger, week 4, 28° C.) was 3.9 µg/mL, the MIC (A. niger) was 3.9 µg/mL and the “concentration effective as a slimicide” value (four different organisms) was under 0.01%. For the same compound, the MIC (E. aerogenes; [7]) was 3.9 µg/mL, the MIC (E. aerogenes; [8]) was 3.9 µg/mL and the MIC (E. aerogenes; [9]) was 3.9 µg/mL. For the same compound, the MIC (E. aerogenes; [10]) was 3.9 µg/mL.

With `C[n+]1sc(Cl)c(Cl)c1Cl` [No. 3 (Table I), 2-Methyl-3,4,5-trichloroisothiazolium hexachloroantimonate] the “Minimum Inhibitory Concentration” value (Ps. aeruginosa; cutting oil emulsion, incubation 1 week, 28°, SbCl6) was 2 µg/mL, the “Minimum Inhibitory Concentration” value (Ps. aeruginosa; cutting oil emulsion, incubation 2 weeks, 28°, SbCl6) was 2 µg/mL and the “Minimum Inhibitory Concentration” value (Ps. aeruginosa; cutting oil emulsion, incubation 3 weeks, 28°, SbCl6) was 2 µg/mL. The “Minimum Inhibitory Concentration” value (Ps. aeruginosa; cutting oil emulsion, incubation 4 weeks, 28°, SbCl6) was 64 µg/mL, the “Zone (zone of inhibition)” value (Aureobasidium pullulans; Conc. 0.25% in vinyl acetate paint, SbCl6) was 20 mm and the “Zone (zone of inhibition)” value (Aureobasidium pullulans; Conc. 0.5% in vinyl acetate paint, SbCl6) was 20 mm.
